Consider one molecule from the NIST ThermoML archive (doi:10.1021/je2001649).

Structures are written as SMILES. ± gives the expanded uncertainty stated by the source.

The conditions of this series: Crystal; visual observation.

As to `c1ccc2c(c1)Nc1ccccc1S2` [10H-phenothiazine], the Normal melting temperature is 183 ± 1 °C.
